Test results from publication PMC6158189, “A pharmacological probe identifies cystathionine β-synthase as a new negative regulator for ferroptosis” (Cell Death & Disease, 2018).
“And” between values parts separate entries of the source, which are not always exact repeats. Equal values may be shown once.

Tests used:
H22 cells = assay: cell viability (CellTiter 96 Aqueous One); assay type: cell-based, mouse
Description: To measure cell viability and cytotoxicity, HepG2, HEK293T, Huh-7, H22, Panc-28, HCT116 and MDA-MB-231 cells were seeded at a density of ~ 2 × 10^4 cells per well in 96-well plates (Coring, NY, USA) for one day, followed by incubation with DMSO or various concentrations of tested compound for indicated times. Then, the cells were collected to measure the cell viability using the CellTiter 96® Aqueous One Solution Cell Proliferation Assay (Promega, G3581) according to the standard protocols.
Figure S11. The effects of CH004 on cell viability in various types of cancer cell lines. (A) Dose-dependent curves of CH004 on cell viability of HepG2 cells (▲), HEK293T cells (○). Percentages of cell viability of CH004 obtained in Figure 4a were fitted to the non-linear equation using GraphPad Prism 5 to get the IC50 values of CH004 in respective cell lines. Means ± SDs (n=3). […] (B) MDA-MB-231 (breast cancer cell cline), HCT116 (colon cancer), Panc-28 cells (pancreas cancer), Huh7 cells (hepatocellular carcinoma) and H22 (mouse liver cancer) were incubated with DMSO (control) or indicated concentrations of CH004 for 24 h in a 96-well plate before assessing cell viability using the CellTiter96® Aqueous One Solution Cell Proliferation Assay (Promega). The data are shown as percentages of control (DMSO, 100%). Means ± SDs (n=3). (C) The dose-dependent curve of CH004 on cell viability. […]

hCBS-FL = target: T1, hCBS-FL (Homo sapiens, UniProt P35520); assay: CBS enzyme assay, H2S quantified by methylene blue method; assay type: biochemical; set-up: human CBS or hCSE full-length (CBS-FL or CSE) was subcloned into pGEX-KG, pcDNA3 or pCDH vector; GST (N); made in house; host or cells: E. coli BL21; conditions: 150 nM hCBS-FL, 200 μM SAM, 4 mM L-Cys, 4 mM D,L-Hcys, Tris-HCl pH 8.6, 80 min
T1 sequence (P35520 1-551): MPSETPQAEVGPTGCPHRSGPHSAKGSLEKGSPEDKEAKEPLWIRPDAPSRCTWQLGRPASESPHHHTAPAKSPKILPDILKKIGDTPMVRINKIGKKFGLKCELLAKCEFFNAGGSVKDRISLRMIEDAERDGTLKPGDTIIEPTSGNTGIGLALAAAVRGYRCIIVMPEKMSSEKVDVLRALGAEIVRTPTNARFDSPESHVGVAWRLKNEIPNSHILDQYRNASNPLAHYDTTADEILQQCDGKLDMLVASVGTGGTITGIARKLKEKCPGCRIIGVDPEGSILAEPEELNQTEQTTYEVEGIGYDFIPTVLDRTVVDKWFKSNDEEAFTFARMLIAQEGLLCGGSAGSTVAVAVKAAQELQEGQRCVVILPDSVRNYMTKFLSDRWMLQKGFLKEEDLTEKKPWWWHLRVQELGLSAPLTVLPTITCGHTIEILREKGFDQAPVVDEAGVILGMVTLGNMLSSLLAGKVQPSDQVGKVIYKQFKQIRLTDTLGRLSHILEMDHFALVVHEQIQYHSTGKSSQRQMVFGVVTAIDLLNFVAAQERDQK
Description: Fig. 1 CH004 inhibits the activity of hCBS in the in vitro purified enzyme assays under different assay conditions. a A scheme for the cascade enzymatic reactions catalyzed by CBS or CSE. Cth, cystathionine. b, c Inhibitory effects of CH004 on the activity of hCBS-413 (b) or hCSE (c). The enzyme activities were monitored for various concentrations of CH004 under the standard conditions (50 mM Tris-HCl, pH 8.6; “Materials and Methods” section). The result is shown as percentages of the control (DMSO, 100%). The data are shown as means ± SDS (n = 3). d The dose-dependent inhibition of CH004 on the hCBS-413 activity was measured by the tandem-well-based assay under the standard conditions except using 50 mM Hepes buffer (pH 7.4) instead of 50 mM Tris-HCl (pH 8.6). Means ± SDs (n = 3). e The dose-dependent inhibition of CH004 on the CBS activity measured by methylene blue method. […] After 80 min, the assay was stopped by added 10 μL 10% ZnAC and the generated H2S was quantified by N,N-dimethyl-p-phenylenediamine to give an absorbance at 670 nm (for details, see Materials and Methods section; ref. [53]). […]
^3The IC50 were determined for hCBS-FL by Methyl Blue method (ref. 1).

## Cn1nc(Cc2ccccc2)nc2c(=O)n(C)c(=O)nc1-2 [CH004, 3-benzyl-1,6-dimethylpyrimido[5,4-e][1,2,4]triazine-5,7(1H,6H)-dione]
H22 cells; 24 h
  IC50: ~13 µM
H22 cells; Mus musculus, H22, 24 h
  IC50: 12.9 ± 0.7 µM
hCBS-FL
  IC50: 1.71 µM and 1.7 µM
